From patent publication US20130065227A1, “METHODS OF INCREASING MACROPINOCYTOSIS IN CANCER CELLS” (priority 2010, published 2013)
{Fluor} = fluorophore: 5-carboxyfluorescein (FAM) or Alexa Fluor 488

What was measured:
[1] = test system: cancer cells (DU145, HeLa, MDA-MB-231) and non-malignant Hs27 skin fibroblasts; assay: Temperature-dependence of oligonucleotide uptake by flow cytometry; type: cell-based; conditions: 10 μM, 37° C. or 4° C. for 2 h, all cell types
Protocol: FIG. 1 are graphs showing that AS1411 cell internalization is an active process. Cells were plated 18 h before uptake analysis. After incubation as described, cells were washed with ice-cold PBS, incubated with 1 μg/ml 7-AAD, harvested and resuspended in 1% paraformaldehyde containing 2 μg/ml actinomycin D, then analyzed by flow cytometry. (Panel A) DU145 cells were incubated at 37° C. with fresh complete DMEM medium containing 10 μM FL-AS1411 (black line) or 10 μM FL-CRO (gray line) for the time indicated. (Panel B) DU145 cells were incubated for 2 h at 37° C. in complete or serum-free DMEM medium containing 10 μM FL-AS1411, or 10 μM FL-CRO, or no oligonucleotide. (Panel C) Various cell lines were incubated with 10 μM FL-AS1411 (black outline histogram), 10 μM FL-CRO (gray outline histogram) or without DNA (solid gray histogram) at 37° C. or 4° C. for 2 h. All experiments were repeated at least three times. Data are mean of three independent samples; bars, SE; *(p<0.05). […]
To determine whether AS1411 uptake occurs through an active uptake process, the temperature-dependence of AS1411 uptake in cancer cells (DU145, HeLa, MDA-MB-231) and non-malignant Hs27 skin fibroblasts was evaluated using flow cytometry. […]

DU145 = assay: Cell response to AS1411; type: cell-based
Source text: (§1) It has recently been discovered that AS1411 can stimulate macropinocytosis (MP) in cancer cells and this finding was verified by several different methods and in multiple cancer cell lines (Table 1).

BEAS2B = assay: Cell response to AS1411; type: cell-based; conditions: Non-cancer, lung epithelial
Source text: as §1

RCC4 = assay: Cell response to AS1411; type: cell-based; conditions: Cancer, renal cell
Source text: as §1

CHO = assay: Cell response to AS1411; type: cell-based; conditions: Non-cancer, hamster ovary
Source text: as §1

MCF7 = assay: Cell response to AS1411; type: cell-based; conditions: Cancer, breast
Source text: as §1

RWPE1 = assay: Cell response to AS1411; type: cell-based; conditions: Non-cancer, prostate epithelial
Source text: as §1

A549 = assay: Cell response to AS1411; type: cell-based; conditions: Cancer, non-small cell lung
Source text: as §1

SK-N-DZ = assay: Cell response to AS1411; type: cell-based; conditions: Cancer, neuroblastoma
Source text: as §1

MDA-MB-231 = assay: Cell response to AS1411; type: cell-based; conditions: Cancer, breast
Source text: as §1

Hs27 = assay: Cell response to AS1411; type: cell-based, human; conditions: Non-cancer, skin fibroblasts
Source text: as §1

MCF10A = assay: Cell response to AS1411; type: cell-based, human; conditions: Non-cancer, breast epithelial
Source text: as §1

cancer cells = assay: Stimulation of macropinocytosis / induced uptake; type: cell-based
Source text: A number of additional G-rich oligonucleotides were obtained and used to evaluate whether or not macropinocytosis was increased in cancer cells using the methodology described herein. For example, the following sequences were used:
In addition, the G-rich oligonucleotides disclosed in Dapic et al. (2003, Nuc. Acids Res.,31:2097 -107; KS-A though KS-I) and the G-rich oligonucleotides (e.g., telomere homologs, GT oligonucleotides, Stat3 binders, Dz13, and triplex oligonucleotides with aptameric effects) disclosed in Bates et al. (2009, Exp. Mol. Path., 86:151-64) and references therein are shown to stimulate macropinocytosis in cancer cells.
Furthermore, due to the unique properties of MPsomes, delivery by MP leads to increased functional activity. Thus, treatment with AS1411, followed by administration of an anticancer siRNA, for example, leads to a synergistic increase in anticancer effects without harming normal cells. Another strategy to potentiate the effects of AS1411 is to combine it with agents that promote MP and activation of Rac. This leads to increased macropinocytic uptake of AS1411 and/or enhanced methuosis.

Substance | temperature dependence of uptake [1] | sensitivity of cells to AS1411 (DU145) | Cells respond? (DU145; DU145, Cancer, prostate) | Cells respond? (BEAS2B) | Cells respond? (RCC4) | Cells respond? (CHO) | Cells respond? (MCF7) | Cells respond? (RWPE1) | Cells respond? (A549) | Cells respond? (SK-N-DZ) | Cells respond? (MDA-MB-231) | Cells respond? (Hs27) | Cells respond? (MCF10A) | induced uptake from the culture medium after pre-treatment (cancer cells)
5′-Fluor-d(TTTCCTCCTCCTCCTTCTCCTCCTCCTCC) (DNA TTTCCTCCTCCTCCTTCTCCTCCTCCTCC; DNA, 5' {Fluor}, backbone and methylation of C not given here) [FL-CRO, reference compound] | strong temperature dependence |  |  |  |  |  |  |  |  |  |  |  |  | 
5′-d(GGTGGTGGTGGTTGTGGTGGTGGTGG) [AS1411] |  | sensitive | Yes | No | Yes | No | Yes | No | Yes | Yes | Yes | No | No | induced uptake of dextran, AS1411, or transferrin (by MP)
